Patent publication US12077503B2, “Substituted cyclic amides and their use as herbicides” (FMC CORPORATION, priority 2015, dated 2024)
Where two headings read alike, the source gives them in different places.

Columns and labels:
Assay type in all cases: in vivo
[1] = tested on: barnyardgrass (Echinochloa crus-galli); assay: Test B flooded paddy test; conditions: Echinochloa crus-galli, Flood, 250 g ai/ha, read-out: Barnyardgrass plant response rating
Summary of the method: (§1)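 Plants at 2-leaf stage flooded to 3 cm above soil, with compounds applied directly to paddy water and that depth maintained. Plants kept in greenhouse 13–15 d. Visual rating versus controls on a 0 (no effect) to 100 (complete control) scale.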

rice (Oryra sativa) = assay: Test B flooded paddy test; conditions: Oryza sativa, Flood, 250 g ai/ha, read-out: Rice plant response rating
Summary of the method: as §1

[2] = tested on: ducksalad (Heteranthera limosa); assay: Test B flooded paddy test; conditions: Heteranthera limosa, Flood, 250 g ai/ha, read-out: Ducksalad plant response rating
Summary of the method: as §1

[3] = tested on: sedge, umbrella (small-flower umbrella sedge, Cyperus difformis); assay: Test B flooded paddy test; conditions: Cyperus difformis, Flood, 250 g ai/ha
Summary of the method: as §1

[4] = tested on: barnyardgrass (Echinochloa crus-galli); assay: Test A postemergence; conditions: Echinochloa crus-galli, post-emergence, 240 h; for pest or weed control at 125 g/ha: 125 g ai/ha, read-out: Barnyardgrass plant response rating (0 to 100 scale, 0 no effect, 100 complete control)
Summary of the method: (§2)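 Preemergence directed soil spray on seeded pots, or postemergence application to plants 2–10 cm, one- to two-leaf. Solvent mixture non-phytotoxic, with surfactant. Scored ~10 d later, visually, 0–100 vs untreated.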

[5] = tested on: ragweed (common ragweed, Ambrosia elatior); assay: Test A postemergence; conditions: Ambrosia artemisiifolia, post-emergence, 240 h; for pest or weed control at 125 g/ha: 125 g ai/ha
Summary of the method: as §2

[6] = tested on: ryegrass, Italian (Italian ryegrass, Lolium multiflorum); assay: Test A postemergence; conditions: Lolium multiflorum, post-emergence, 240 h; for pest or weed control at 125 g/ha: 125 g ai/ha
Summary of the method: as §2

corn (Zea mays) = assay: Test A postemergence; conditions: Zea mays, post-emergence, 240 h; for plant injury at 125 g/ha: 125 g ai/ha
Summary of the method: as §2

[7] = tested on: pigweed (Amaranthus retroflexus); assay: Test A postemergence; conditions: Amaranthus retroflexus, post-emergence, 240 h; for pest or weed control at 125 g/ha: 125 g ai/ha
Summary of the method: as §2

[8] = tested on: wheat (Triticum aestivum); assay: Test A postemergence; conditions: Triticum aestivum, post-emergence, 240 h; for plant injury at 125 g/ha: 125 g ai/ha
Summary of the method: as §2

[9] = tested on: blackgrass (Alopecurus myosuroides); assay: Test A postemergence; conditions: Alopecurus myosuroides, post-emergence, 240 h; for pest or weed control at 125 g/ha: 125 g ai/ha
Summary of the method: as §2

Kochia (Kochia scoparia) = assay: Test A postemergence; conditions: Bassia scoparia, post-emergence, 240 h; for pest or weed control at 125 g/ha: 125 g ai/ha
Summary of the method: as §2

[10] = tested on: giant foxtail (Setaria faberii); assay: Test A postemergence; conditions: Setaria faberi, post-emergence, 240 h; for pest or weed control at 125 g/ha: 125 g ai/ha
Summary of the method: as §2

[11] = tested on: Galium (catchweed bedstraw, Galium aparine); assay: Test A postemergence; conditions: Galium, post-emergence, 240 h; for pest or weed control at 125 g/ha: 125 g ai/ha
Summary of the method: as §2

[12] = scale of 0 to 100 where 0 is no effect and 100 is complete control
[13] = 0 to 100 scale where 0 is no effect and 100 is complete control

CSc1ccccc1NC(=O)[C@H]1C(=O)N(C)CC[C@@H]1c1cccc(OC(F)(F)F)c1 [Compound 809] was tested, and the pest or weed control at 250 g/ha [1, 12] was 0%, the pest or weed control at 250 g/ha (rice (Oryra sativa); [12]) was 0% and the pest or weed control at 250 g/ha [2, 12] was 0%. It also gave a pest or weed control at 250 g/ha ([3]; scale of 0 to 100 where 0 is no effect and 100 is complete control, read-out: Sedge, Umbrella plant response rating) of 0%, a pest or weed control at 125 g/ha ([4]; postemergence, visual injury rating after approximately 10 d) of 0% and a pest or weed control at 31 g/ha ([4]; Postemergence, 31 g ai/ha, visual injury after approx. 10 d, 0 to 100 scale, 0 no effect, 100 complete control, read-out: Plant response rating, Barnyardgrass) of 0%. For the same compound, the pest or weed control at 125 g/ha ([5]; postemergence, visual injury rating after approximately 10 d, read-out: Ragweed plant response rating (0 to 100 scale, 0 no effect, 100 complete control)) was 0%, the pest or weed control at 31 g/ha ([5]; Postemergence, 31 g ai/ha, visual injury after approx. 10 d, 0 to 100 scale, 0 no effect, 100 complete control, read-out: Plant response rating, Ragweed) was 0% and the pest or weed control at 125 g/ha ([6]; postemergence, visual injury rating after approximately 10 d, read-out: Ryegrass, Italian plant response rating (0 to 100 scale, 0 no effect, 100 complete control)) was 0%. It also gave a pest or weed control at 31 g/ha ([6]; Postemergence, 31 g ai/ha, visual injury after approx. 10 d, 0 to 100 scale, 0 no effect, 100 complete control, read-out: Plant response rating, Ryegrass, Italian) of 0%, a plant injury at 125 g/ha (corn (Zea mays); postemergence, visual injury rating after approximately 10 d, read-out: Corn plant response rating (0 to 100 scale, 0 no effect, 100 complete control)) of 0% and a Corn plant response rating (crop injury, 0 = no effect, 100 = complete kill) at 31 g/ha (corn (Zea mays); Postemergence, 31 g ai/ha, visual injury after approx. 10 d, 0 to 100 scale, 0 no effect, 100 complete control) of 0%. For the same compound, the pest or weed control at 125 g/ha ([7]; postemergence, visual injury rating after approximately 10 d, read-out: Pigweed plant response rating (0 to 100 scale, 0 no effect, 100 complete control)) was 0%, the pest or weed control at 31 g/ha ([7]; Postemergence, 31 g ai/ha, visual injury after approx. 10 d, 0 to 100 scale, 0 no effect, 100 complete control, read-out: Plant response rating, Pigweed) was 0% and the plant injury at 125 g/ha ([8]; postemergence, visual injury rating after approximately 10 d, read-out: Wheat plant response rating (0 to 100 scale, 0 no effect, 100 complete control)) was 0%. For the same compound, the plant injury at 31 g/ha ([8]; Postemergence, 31 g ai/ha, visual injury after approx. 10 d, 0 to 100 scale, 0 no effect, 100 complete control, read-out: Plant response rating, Wheat) was 0%, the pest or weed control at 125 g/ha ([9]; postemergence, visual injury rating after approximately 10 d, read-out: Blackgrass plant response rating (0 to 100 scale, 0 no effect, 100 complete control)) was 0% and the pest or weed control at 31 g/ha ([9]; Postemergence, 31 g ai/ha, visual injury after approx. 10 d, 0 to 100 scale, 0 no effect, 100 complete control, read-out: Plant response rating, Blackgrass) was 0%. The pest or weed control at 125 g/ha (Kochia (Kochia scoparia); postemergence, visual injury rating after approximately 10 d, read-out: Kochia plant response rating (0 to 100 scale, 0 no effect, 100 complete control)) was 0%, the pest or weed control at 31 g/ha (Kochia (Kochia scoparia); Postemergence, 31 g ai/ha, visual injury after approx. 10 d, 0 to 100 scale, 0 no effect, 100 complete control, read-out: Plant response rating, Kochia) was 0% and the pest or weed control at 125 g/ha ([10]; postemergence, visual injury rating after approximately 10 d, read-out: Foxtail, Giant plant response rating (0 to 100 scale, 0 no effect, 100 complete control)) was 0%. For the same compound, the pest or weed control at 31 g/ha ([10]; Postemergence, 31 g ai/ha, visual injury after approx. 10 d, 0 to 100 scale, 0 no effect, 100 complete control, read-out: Plant response rating, Foxtail, Giant) was 0%, the pest or weed control at 125 g/ha ([11]; postemergence, visual injury rating after approximately 10 d, read-out: Galium plant response rating (0 to 100 scale, 0 no effect, 100 complete control)) was 0% and the pest or weed control at 31 g/ha ([11]; Postemergence, 31 g ai/ha, visual injury after approx. 10 d, 0 to 100 scale, 0 no effect, 100 complete control, read-out: Plant response rating, Galium) was 0%.
CN1C[C@H](c2cccc(C(C)(F)F)c2)[C@@H](C(=O)Nc2ccc(F)cc2F)C1=O [Compound 1319] showed a pest or weed control at 250 g/ha [1, 13] of 90%, a pest or weed control at 250 g/ha (rice (Oryra sativa); [13]) of 0% and a pest or weed control at 250 g/ha [2, 13] of 90%. It also gave a pest or weed control at 250 g/ha ([3]; 360 h, visually evaluated after 13 to 15 d, read-out: Plant response rating, Sedge, Umbrella (0 to 100 scale where 0 is no effect and 100 is complete control)) of 0%, a pest or weed control at 125 g/ha ([4]; Postemergence, visual rating about 10 d after treatment) of 90% and a pest or weed control at 500 g/ha ([4]; Postemergence, 500 g ai/ha, visual injury, 0 to 100 scale (0 no effect, 100 complete control), approx. 10 d, read-out: Plant response rating, Barnyardgrass) of 90%. For the same compound, the pest or weed control at 125 g/ha ([5]; Postemergence, visual rating about 10 d after treatment, read-out: Ragweed plant response rating (0 to 100 scale)) was 0%, the pest or weed control at 500 g/ha ([5]; Postemergence, 500 g ai/ha, visual injury, 0 to 100 scale (0 no effect, 100 complete control), approx. 10 d, read-out: Plant response rating, Ragweed) was 0% and the pest or weed control at 125 g/ha ([6]; Postemergence, visual rating about 10 d after treatment, read-out: Ryegrass, Italian plant response rating (0 to 100 scale)) was 40%. It also gave a pest or weed control at 500 g/ha ([6]; Postemergence, 500 g ai/ha, visual injury, 0 to 100 scale (0 no effect, 100 complete control), approx. 10 d, read-out: Plant response rating, Ryegrass, Italian) of 60%, a plant injury at 125 g/ha (corn (Zea mays); Postemergence, visual rating about 10 d after treatment, read-out: Corn plant response rating (0 to 100 scale)) of 70% and a Corn plant response rating (crop injury, 0 = no effect, 100 = complete kill) at 500 g/ha (corn (Zea mays); Postemergence, 500 g ai/ha, visual injury, 0 to 100 scale (0 no effect, 100 complete control), approx. 10 d) of 80%. For the same compound, the pest or weed control at 125 g/ha ([7]; Postemergence, visual rating about 10 d after treatment, read-out: Pigweed plant response rating (0 to 100 scale)) was 0%, the pest or weed control at 500 g/ha ([7]; Postemergence, 500 g ai/ha, visual injury, 0 to 100 scale (0 no effect, 100 complete control), approx. 10 d, read-out: Plant response rating, Pigweed) was 50% and the plant injury at 125 g/ha ([8]; Postemergence, visual rating about 10 d after treatment, read-out: Wheat plant response rating (0 to 100 scale)) was 60%. It also gave a plant injury at 500 g/ha ([8]; Postemergence, 500 g ai/ha, visual injury, 0 to 100 scale (0 no effect, 100 complete control), approx. 10 d, read-out: Plant response rating, Wheat) of 60%, a pest or weed control at 125 g/ha ([9]; Postemergence, visual rating about 10 d after treatment, read-out: Blackgrass plant response rating (0 to 100 scale)) of 70% and a pest or weed control at 500 g/ha ([9]; Postemergence, 500 g ai/ha, visual injury, 0 to 100 scale (0 no effect, 100 complete control), approx. 10 d, read-out: Plant response rating, Blackgrass) of 80%. For the same compound, the pest or weed control at 125 g/ha (Kochia (Kochia scoparia); Postemergence, visual rating about 10 d after treatment, read-out: Kochia plant response rating (0 to 100 scale)) was 20%, the pest or weed control at 500 g/ha (Kochia (Kochia scoparia); Postemergence, 500 g ai/ha, visual injury, 0 to 100 scale (0 no effect, 100 complete control), approx. 10 d, read-out: Plant response rating, Kochia) was 60% and the pest or weed control at 125 g/ha ([10]; Postemergence, visual rating about 10 d after treatment, read-out: Foxtail, Giant plant response rating (0 to 100 scale)) was 90%. For the same compound, the pest or weed control at 500 g/ha ([10]; Postemergence, 500 g ai/ha, visual injury, 0 to 100 scale (0 no effect, 100 complete control), approx. 10 d, read-out: Plant response rating, Foxtail, Giant) was 90%, the pest or weed control at 125 g/ha ([11]; Postemergence, visual rating about 10 d after treatment, read-out: Galium plant response rating (0 to 100 scale)) was 60% and the pest or weed control at 500 g/ha ([11]; Postemergence, 500 g ai/ha, visual injury, 0 to 100 scale (0 no effect, 100 complete control), approx. 10 d, read-out: Plant response rating, Galium) was 60%.
